Measured values reported in publication PMC10374545, “A small molecule inhibitor of PTP1B and PTPN2 enhances T cell anti-tumor immunity” (Nature Communications, 2023).
Values joined by “and” are separate entries in the source; they are usually repeats but may differ in a detail not shown here. Identical values can stand only once.

Tests used:
AT3-OVA mammary tumors = experiment: AT3-OVA mammary tumor growth in C57BL/6 mice; type: in vivo, mouse; set-up: Tumour weights, individual mice: unit not given here; conditions: for Tumour growth, individual mice: Figure 5A; for Tumour growth, single mice: sizes in mm^2, Fig. 3A, listed as CMP-182, 10 mg/kg
Description: (§1) Male or female mice were injected subcutaneously with 5 × 10^5 MC38 tumor cells resuspended in 100 μl D-PBS into the flank. Alternatively, female mice were injected orthotopically with 5 × 10^5 AT3 or AT3-OVA or PTPN2-deleted AT3 or AT3-OVA tumor cells resuspended in 20 μl D-PBS into the fourth mammary fat pad. Tumor sizes were measured in two dimensions (mm^2) using electronic callipers two to three times per week as soon as tumors were palpable (20–25 mm^2).

MC38 colon tumors = experiment: MC38 colon tumor growth in C57BL/6 mice; type: in vivo, mouse; conditions: 10 mg, listed as CMP-182; for Tumour growth MC38, individual mice: in mm2
Description: as §1

CC(C)(O)CCOc1ccc2cc(O)c(N3CC(=O)NS3(=O)=O)c(F)c2c1 [Compound 182, 5-(1-Fluoro-3-hydroxy-7-(3-hydroxy-3-methylbutoxy)naphthalen-2-yl)−1,2,5-thiadiazolidin-3-one 1,1-dioxide]
repression of tumor growth, dosing every two days compared with every three days (AT3-OVA mammary tumors; 10 mg/kg i.v.): more pronounced
AT3-OVA tumor growth, administration every three days (AT3-OVA mammary tumors; 10 mg/kg i.v., days 9-27, Supplementary Fig. 8): represses
growth of AT3-OVA mammary tumors (AT3-OVA mammary tumors; 10 mg/kg intravenously every 2 days or every 3 days): effectively repressed the growth
Tumour weight d21 (median) (AT3-OVA mammary tumors; AT-3-OVA, Figure 3A, column B, n=8): 100.0, n=8
Tumour weights, individual mice (AT3-OVA mammary tumors; C57BL/6, CMP-182 10 mg, n=8, Figure 5B): 126 and 340 and 344 and 76 and 85 and 190 and 183 and 281
Tumour growth, individual mice (AT3-OVA mammary tumors; C57BL/6, CMP-182 10 mg, n=8, day 0 post injection, in mm2): 38.86 and 38.76 and 36.96 and 20 and 19.89 and 39.65 and 32.33 and 44.53
Tumour growth, individual mice (AT3-OVA mammary tumors; C57BL/6, CMP-182 10 mg, n=8, day 2 post injection, in mm2): 46.62 and 45 and 45.75 and 21.2 and 22.26 and 46.15 and 36.4 and 52
Tumour growth, individual mice (AT3-OVA mammary tumors; C57BL/6, CMP-182 10 mg, n=8, day 4 post injection, in mm2): 40.6 and 37.95 and 45.6 and 22.4 and 21.42 and 37.21 and 29.5 and 55.61
Tumour growth, individual mice (AT3-OVA mammary tumors; C57BL/6, CMP-182 10 mg, n=8, day 7 post injection, in mm2): 35.1 and 40.02 and 49.4 and 25.2 and 27.54 and 44.85 and 32.5 and 53.6
Tumour growth, individual mice (AT3-OVA mammary tumors; C57BL/6, CMP-182 10 mg, n=8, day 9 post injection, in mm2): 40.2 and 41.76 and 56.44 and 28.35 and 33.04 and 52.56 and 37.95 and 65.25
Tumour growth, individual mice (AT3-OVA mammary tumors; C57BL/6, CMP-182 10 mg, n=8, day 12 post injection, in mm2): 40.8 and 47.74 and 66.43 and 30.15 and 33.63 and 55.5 and 42 and 70.2
Tumour growth, individual mice (AT3-OVA mammary tumors; C57BL/6, CMP-182 10 mg, n=8, day 15 post injection, in mm2): 42 and 55.44 and 75.75 and 31.5 and 34.22 and 60.84 and 45.26 and 76
Tumour size AT-3-OVA (group mean) (AT3-OVA mammary tumors; C57BL/6 n=8, time point 6, in mm2): 21.8
Tumour size AT-3-OVA (group mean) (AT3-OVA mammary tumors; C57BL/6 n=8, time point 8, in mm2): 21.97
Tumour size AT-3-OVA (group mean) (AT3-OVA mammary tumors; C57BL/6 n=8, time point 10, in mm2): 23.3
Tumour size AT-3-OVA (group mean) (AT3-OVA mammary tumors; C57BL/6 n=8, time point 13, in mm2): 25.76
Tumour size AT-3-OVA (group mean) (AT3-OVA mammary tumors; C57BL/6 n=8, time point 15, in mm2): 29.09
Tumour size AT-3-OVA (group mean) (AT3-OVA mammary tumors; C57BL/6 n=8, time point 17, in mm2): 31.79
Tumour size AT-3-OVA (group mean) (AT3-OVA mammary tumors; C57BL/6 n=8, time point 19, in mm2): 33.9
Tumour size AT-3-OVA (group mean) (AT3-OVA mammary tumors; C57BL/6 n=8, time point 21, in mm2): 36.99
Tumour size AT-3-OVA (group mean) (AT3-OVA mammary tumors; C57BL/6 n=8, time point 23, in mm2): 41.18
Tumour size AT-3-OVA, mean over all time points (AT3-OVA mammary tumors; C57BL/6 n=8, two-way RM ANOVA column mean, in mm2): 29.53
Tumour growth, single mice (AT3-OVA mammary tumors; day 6 post injection (first dose), 10 mg/kg i.v., in mm2): 22.54 and 20.7 and 19.36 and 20.25 and 18.49 and 22.09 and 26.95 and 24
Tumour growth, single mice (AT3-OVA mammary tumors; day 8 post injection, 10 mg/kg i.v., in mm2): 22.08 and 20.7 and 20.68 and 20.91 and 19.78 and 21.15 and 25.97 and 24.48
Tumour growth, single mice (AT3-OVA mammary tumors; day 10 post injection, 10 mg/kg i.v., in mm2): 27.56 and 22.95 and 17.6 and 23.1 and 20.64 and 23.04 and 23.65 and 27.84
Tumour growth, single mice (AT3-OVA mammary tumors; day 15 post injection, 10 mg/kg i.v., in mm2): 37.95 and 25.76 and 21.12 and 24.36 and 20.64 and 28.62 and 35.75 and 38.5
Tumour growth, single mice (AT3-OVA mammary tumors; day 23 post injection, 10 mg/kg i.v., in mm2): 43.55 and 30 and 34.02 and 32.76 and 29.15 and 54.51 and 48.18 and 57.27
Tumour weights MC38, individual mice (MC38 colon tumors; Figure 4A, in mg (unit assumed)): 243 and 125 and 480 and 119 and 315
Tumour growth MC38, individual mice (MC38 colon tumors; day 7 post injection): 20.3252 and 20.2131 and 15.2865 and 13.9084 and 14.2859
Tumour growth MC38, individual mice (MC38 colon tumors; day 10 post injection): 21.1854 and 45.7254 and 22.9296 and 28.815 and 21.9308
Tumour growth MC38, individual mice (MC38 colon tumors; day 13 post injection): 21.6489 and 72.4458 and 32.816 and 40.3221 and 29.9376
